Results reported in patent publication US20260199492A1, “PSD-95 DOMAIN INHIBITOR, AND PREPARATION METHOD THEREFOR AND USE THEREOF” (SHENZHEN SALUBRIS PHARMACEUTICALS CO., LTD, priority 2023, published 2026).
Square brackets hold non-standard residues; d marks the D form. Ends that are not written are not given here. Peptide text beside a SMILES is read from it.

Key:
PDZ1-2 of PSD95 = PDZ1-2 of PSD95 (Homo sapiens, UniProt P78352); assay: Fluorescence polarization competition binding assay of PDZ1-2 with probe 5-FAM-NA-1
PDZ1-2 of PSD95, sequence (P78352 61-249 limits assumed): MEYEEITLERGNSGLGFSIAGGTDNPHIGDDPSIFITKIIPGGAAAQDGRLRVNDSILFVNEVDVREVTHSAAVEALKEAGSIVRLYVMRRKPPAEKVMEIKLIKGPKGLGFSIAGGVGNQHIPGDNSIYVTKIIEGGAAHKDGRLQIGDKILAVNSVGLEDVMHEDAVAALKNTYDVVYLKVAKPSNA

[1] = Tissue distribution experiment of TAMRA-labeled compounds; type: in vivo; details: TAMRA-labeled compound, male Balb/c mice, 3 nmol/g tail vein injection, 45 min circulation, after perfusion
Procedure: The TAMRA-labeled example compounds were dissolved in saline to prepare a solution with a concentration of 600 μM/mL. A 100 μL of the above prepared solution was administered, at a dose of 3 nmol/g, to 6-week-old male Balb/c mice (18-22 g) via tail vein injection. After 45 min of circulation, the animals were deeply anesthetized by intraperitoneal injection of sodium pentobarbital. The thoracic cavity was opened, and the mice were subjected to cardiac perfusion using 0.01 M PBS (pH 7.4), and the brains, kidneys, and livers were collected at the end of perfusion. The harvested tissues were immediately placed on ice and stored at −80° C. […] The supernatant was transferred to a black 96-well plate with a clear bottom, and the TAMRA-peptide was quantified using a PHERAstar FSX plate reader (BMG LABTECH, Ortenberg, Germany). The excitation/emission wavelengths were set at 540/580 nm. The corresponding peptide concentration in the tissues was calculated using a standard curve (blank tissue mixed with TAMRA-peptide, concentration range of 0-1000 nM).

[2] = Toxicological experiment: serum UREA and CREA after 5 days of i.v. dosing; type: in vivo, SD rats; details: male SD rats, 30 mg/kg i.v. once daily for 5 days, serum 2 h after dosing on day 5
Procedure: The compounds of Examples 1-8 were accurately weighed into suitable EP tubes, and the vehicle (saline) was added to formulate a solution of a concentration of 15 mg/mL. The solution was filtered using a 0.2 μm filter for future use.
A total of 18 male SD rats of 6-7 weeks of age were used for test. After the animal quarantine and acclimatization period, the animals were randomly divided into 6 groups according to their body weights measured before grouping, vehicle control group (saline) as well as example compounds groups, 3 animals/group. Using the above prepared solution, the animal was administered intravenously via the tail vein at a dosage of 30 mg/kg and a dosing volume of 2 mL/kg. The dosing volume for each animal was calculated according to the body weight. Administration was performed once daily for 5 consecutive days. After 2 h of administration on day 5, the animals were deeply anesthetized by intraperitoneal injection of sodium pentobarbital. The thoracic cavity was opened, and blood was collected from the abdominal aorta into blood collection tubes containing inert separation gel and coagulant. The serum was collected by centrifugation (4000 rpm, 10 min) after about 1 h of resting. The concentrations of UREA and CREA in the serum were detected using a biochemical analyzer. The percentage change of each example compound relative to the vehicle control group was calculated using the formula: %=(Concentration of example compound−Concentration of vehicle control group)/Concentration of vehicle control group.

in vitro = details: human, plasma
Procedure: (§1) • Plasma: Human plasma is commercially available. • Reagents: DMSO (dimethyl sulfoxide), disodium hydrogen phosphate, sodium dihydrogen phosphate, methanol, formic acid, and propranolol (internal standard) are commercially available. • Instrument: AB SCIEX QTRAP 5500+.
(§2) 5 μL of stock solution (10 mM) was diluted with 495 μL of 0.05 M sodium phosphate buffer to 100 μM of dosing solution. The final concentration of tested drug for incubation was 10 μM.
(§3) A certain volume (e.g., 27 μL or 24 μL) of plasma was added into a 96-well plate. An appropriate volume of the internal standard working solution (e.g., 150 μL) was immediately added to precipitate. […] This was performed in duplicate.
(§4) Then, an appropriate amount of plasma (e.g., 27 μL or 24 μL) was added at the designed time points (e.g., 5 min, 15 min, 30 min, 60 min, and 120 min, etc.), and the parallel replicate wells were performed at each time point. […] The reaction was terminated by adding an appropriate amount of internal standard working solution (e.g., 150 μL) at the end of the time, and the mixture was mixed thoroughly.
(§5) The mixture was centrifuged at 4000 rpm for 15 min. A certain amount of the supernatant was taken, mixed with a certain amount of water, and then subjected to LC/MS/MS analysis. LC-MS detection conditions were as follows: • Chromatography column: YMC Triart C18, 50*3.0 mm, 2.1 μm. • Mobile phase: Gradient elution was performed using water (0.1% formic acid)-acetonitrile according to the table below.
(§6) The relative content of drug at each time point was calculated using the initial 0 point as 100%. The half-life of the drug was calculated by plotting “relative drug content” against “incubation time” using GraphPad Prism 5 software.

[3] = In vitro plasma stability experiment (compounds), without or with tPA; details: human, With tPA T1/2, human plasma, 37° C., initial concentration 10 μM, with rt-PA […]
Procedure: as §1, §2, §3, §4, §5, §6

Molecule	IC50 (PDZ1-2 of PSD95) [µM]	Mean tissue concentration, Brain [1] [nmol/g]	CREA, percentage change compared to vehicle control group [2] [%]	UREA, percentage change compared to vehicle control group [2] [%]	half-life (in vitro; With tPA T1/2) [h]	half-life (in vitro; Without tPA T1/2) [h]	half-life at 10 μM [3] [min]
CC[C@H](C)[C@H](NC(=O)[C@H](CO)NC(=O)[C@H](CO)NC(=O)[C@H](CC(C)C)NC(=O)[C@@H](CCCCN)NC(=O)[C@H](CCCNC(=N)N)NC(=O)[C@@H](CCCNC(=N)N)NC(=O)[C@H](CCC(N)=O)NC(=O)[C@@H](CCCNC(=N)N)NC(=O)[C@H](CCCNC(=N)N)NC(=O)[C@H](CCCCN)NC(=O)[C@H](CCCCN)NC(=O)[C@@H](CCCNC(=N)N)NC(=O)CNC(=O)[C@@H](N)Cc1ccc(O)cc1)C(=O)N[C@@H](CCC(=O)O)C(=O)N[C@@H](CO)C(=O)N[C@@H](CC(=O)O)C(=O)N[C@H](C(=O)O)C(C)C [Compound 1] (H-YG[dR]KKR[dR]Q[dR]R[dK]LSSIESDV-OH; N-terminus and C-terminus assumed)	14.9	5.9220	216.9	206.9			
CC[C@H](C)[C@H](NC(=O)[C@H](CO)NC(=O)[C@H](CO)NC(=O)[C@H](CC(C)C)NC(=O)[C@@H](CCCCN)NC(=O)[C@H](CCCNC(=N)N)NC(=O)[C@H](CCCNC(=N)N)NC(=O)[C@@H](CCCNC(=N)N)NC(=O)[C@H](CCC(=O)O)NC(=O)[C@@H](CCCNC(=N)N)NC(=O)[C@H](CCCNC(=N)N)NC(=O)[C@H](CCCCN)NC(=O)[C@H](CCCCN)NC(=O)[C@@H](CCCNC(=N)N)NC(=O)CNC(=O)[C@@H](N)Cc1ccc(O)cc1)C(=O)N[C@@H](CCC(=O)O)C(=O)N[C@@H](CO)C(=O)N[C@@H](CC(=O)O)C(=O)N[C@H](C(=O)O)C(C)C [Compound 15] (H-YG[dR]KKR[dR]E[dR]RR[dK]LSSIESDV-OH)	11.3	4.4515	90.8	88.6	> 33.3	> 33.3	
YGRKKRRQRRRKLSSIESDV [NA-1, reference compound]		2.9115					3.61
